Tests used:
[1] = system: DENV; assay: Hematocrit analysis in DENV-infected WT mice; assay type: in vivo; conditions: i.p. 1×10^6 pfu DENV, 1 day after infection, versus uninfected baseline
Protocol: (§1) Serum was obtained from uninfected mice, DENV-infected and untreated mice, and mice that received MC-stabilizing or MC-product targeting treatments 24 hr after infection. Error bars represent the SEM of values obtained from individual animals n≥3.
To support the observation of increased dye leakage, hematocrit analysis was also performed using blood samples from mice. This test is one that is used in some cases to diagnose DENV pathology clinically by measuring the packed red blood cell volume from the blood and, therefore, it is a measure of plasma loss (see, e.g., Special Programme for Research and Training in Tropical Diseases, WHO Dengue: guidelines for diagnosis, treatment, prevention, and control. (2009) New ed. Geneva:TDR:World Health Organization). […] These findings cumulatively point to a pivotal role for MCs in promoting DENV-induced increased in vascular permeability.
Due to the contributions of MCs to many pathological inflammatory disorders, there are a number of available drugs that target MCs or products that they produce after activation. […] This hypothesis was tested by blocking DENV induced vascular leakage using a panel of such drugs. […] Drugs were administered once, 30 minutes after i.p. instillation of 1×106 DENV and vascular leakage assessed 1 day after infection.

[2] = system: DENV; assay: Evans Blue perfusion model of DENV-induced vascular leakage in WT mice; assay type: in vivo; conditions: i.p. 1×10^6 pfu DENV, 1 day after infection, versus uninfected baseline
Protocol: Uninfected mice, or mice infected with 1×10^6 pfu of DENV were injected with 100 μL of 5% Evans Blue dye 30 minutes prior to euthanasia. […] This contrast is particularly striking in the liver, a Dengue-target organ.
as §1
As expected, Sash mice, which are MC-deficient model (see, e.g., Grimbaldestron, M. A. et al. (2005) Am. J. Pathol. 167:835-848), have undetectable serum levels of MCPT1 as baseline, as do uninfected congenic wild-type (WT) controls (FIG. 2A). To examine vascular leakage, mice infected with DENV were injected by tail vein with the tracking dye, Evans Blue, 30 minutes prior to euthanasia at a 24 hr time point.
Using this Evans Blue perfusion model, the extent of vascular leakage induced in 24 hr after i.p. instillation of 1×10^6 plaque-forming units (pfu) of DENV in WT and Sash mice was determined. […]
Due to the contributions of MCs to many pathological inflammatory disorders, there are a number of available drugs that target MCs or products that they produce after activation. […] Drugs were administered once, 30 minutes after i.p. instillation of 1×106 DENV and vascular leakage assessed 1 day after infection.

## CN1CCC(=C2c3ccccc3CC(=O)c3sccc32)CC1 [ketotifen]
[1]
  hematocrit values compared to baseline levels: not statistically different from baseline levels
[2]
  levels of tissue dye detection compared to baseline levels: not statistically different from baseline levels

Source: patent US10668059B2, “Compositions and methods for the prevention and treatment of mast cell-induced vascular leakage” (Duke University, priority 2012, dated 2020)
